Tests used:
Format in all cases: in vivo, wistar rats
TNF-α = test: Bleomycin induced lung fibrosis in rats: TNF-α in lung tissue homogenate; conditions: iso-garcinol 10 mg/kg, octahydrocurcumin 150 mg/kg bodyweight, individually and in combination, vs pulmonary fibrosis control (FIG. 5)
Procedure: (§1) After overnight fasting, the wistar rats were anesthetized (60 mg/kg ketamine HCl and 5 mg/kg xylazine) and a midline incision was made in the neck and the trachea was exposed. A tracheal cannula was inserted under direct visualization into the trachea. Pulmonary fibrosis was induced by intratracheal administration of single dose 0.1 mL of bleomycin (5 mg/kg in 0.9% NaCl). Treatment with the test material was given 5 min after administration of bleomycin for 14 consecutive days. After 14 days, BALF (bronchoalveolar lavage fluid) was obtained. Lung tissue was weighed to determine the lung index. Lung homogenate was stored at −80° C. for analysis of bio-markers. […]
(§2) The lung of the animals was removed and rinsed with ice-cold isotonic saline. […] The levels of HIF-1 alpha, TGF-β, IL-13, IL-1β, TNF-α, CCL-17, osteopontin and mucin in the lung tissue homogenate was determined using methods and protocols already reported in scientific literature.

IL-13 = test: Bleomycin induced lung fibrosis in rats: IL-13 in lung tissue homogenate; conditions: iso-garcinol 10 mg/kg, octahydrocurcumin 150 mg/kg bodyweight, individually and in combination, vs pulmonary fibrosis control (FIG. 4)
Procedure: as §1, §2

CCL-17 = test: Bleomycin induced lung fibrosis in rats: CCL-17 in lung tissue homogenate; conditions: iso-garcinol 10 mg/kg, octahydrocurcumin 150 mg/kg bodyweight, individually and in combination, vs pulmonary fibrosis control (FIG. 6)
Procedure: as §1, §2

IL-1β = test: Bleomycin induced lung fibrosis in rats: IL-1β in lung tissue homogenate; conditions: iso-garcinol 10 mg/kg, octahydrocurcumin 150 mg/kg bodyweight, individually and in combination, vs pulmonary fibrosis control (FIG. 5)
Procedure: as §1, §2

Collagen-I = test: Bleomycin induced lung fibrosis in rats: collagen 1 levels; conditions: iso-garcinol 10 mg/kg p.o., octahydrocurcumin 150 mg/kg, alone and combined; normal control 64.25 ± 4.98, fibrosis control 102.43 ± 3.70
Procedure: as §1, §2

TGF-β = test: Bleomycin induced lung fibrosis in rats: TGF-β in lung tissue homogenate; conditions: iso-garcinol 10 mg/kg, octahydrocurcumin 150 mg/kg bodyweight, individually and in combination, 14 days; for reduction in TGF-β levels: compared to pulmonary fibrosis control group (1721 pg/ml); for TGF-β levels: control group 1721 pg/ml
Procedure: (§3) After overnight fasting, the wistar rats were anesthetized (60 mg/kg ketamine HCl and 5 mg/kg xylazine) and a midline incision was made in the neck and the trachea was exposed. A tracheal cannula was inserted under direct visualization into the trachea. Pulmonary fibrosis was induced by intratracheal administration of single dose 0.1 mL of bleomycin (5 mg/kg in 0.9% NaCl). Treatment with the test material was given 5 min after administration of bleomycin for 14 consecutive days. After 14 days, BALF (bronchoalveolar lavage fluid) was obtained. Lung tissue was weighed to determine the lung index. Lung homogenate was stored at −80° C. for analysis of bio-markers. (Yildirim A, Ersoy Y, Ercan F et al., “Phosphodiesterase-5 inhibition by sildenafil citrate in a rat model of bleomycin-induced lung fibrosis,” Pulmonary Pharmacol Therap. […]; 23(3):215-221; Chen L, Wang T, Wang X et al., “Blockade of advanced glycation end product formation attenuates bleomycin-induced pulmonary fibrosis in rats,” Respiratory Res. 2009; 10:55; Nergiz et al., The Protective Effect of Naringin against Bleomycin-Induced Pulmonary Fibrosis in Wistar Rats. Pulmonary Med. 2016, 12 p, http://dx.doi.org/10.1155/2016/7601393)
(§4) The lung of the animals was removed and rinsed with ice-cold isotonic saline. To the tissues was added 4 ml/g tissue of extraction buffer containing 1 mM phenylmethylsulfonyl fluoride, 1 mg/ml aprotinin and 0.05% Tween 20 in phosphate buffered saline. Tissues were homogenized on ice with a polytron and the homogenate was centrifuged at 5000 g for 15 min. Aliquots of the supernatant were separated and used for biochemical analysis. Supernatants were stored at −80° C. until cytokine analysis (Pandey et al., Multifunctional neuroprotective effect of Withanone, a compound from Withania somnifera roots in alleviating cognitive dysfunction. Cytokine 102 (2018) 211-221). The levels of HIF-1 alpha, TGF-β, IL-13, IL-1β, TNF-α, CCL-17, osteopontin and mucin in the lung tissue homogenate was determined using methods and protocols already reported in scientific literature.

HIF-1α = test: Bleomycin induced lung fibrosis in rats: HIF-1 alpha in lung tissue homogenate; conditions: 14 days; for reduction in HIF-α levels: compared to pulmonary fibrosis control group (138.6 pg/ml); for reduction in HIF-α levels / HIF-α levels: iso-garcinol 10 mg/kg, octahydrocurcumin 150 mg/kg bodyweight, individually and in combination; for HIF-α levels: control group 138.6 pg/ml
Procedure: as §3, §4
Different concentration of iso-garcinol (5, 10, 20 mg/kg bodyweight) and octahydrocurcumin were first administered to rats and the effect of the compounds in reducing hypoxia related HIF-α was evaluated. […] Thus, iso-garcinol at 10 mg/kg bodyweight and octahydrocurcumin at 150 mg/kg bodyweight was used for the further combination studies.

[1] = Bleomycin induced lung fibrosis in rats: lung index; conditions: (weight of the lung/bodyweight)×100; iso-garcinol 10 mg/kg p.o., octahydrocurcumin 150 mg/kg, alone and combined; normal control 0.75 ± 0.053, fibrosis control 1.39 ± 0.034
Procedure: as §3
Lung index calculated using the below formula
Lung Index=(weight of the lung/bodyweight)×100

osteopontin = test: Bleomycin induced lung fibrosis in rats: osteopontin in lung tissue homogenate; conditions: iso-garcinol 10 mg/kg, octahydrocurcumin 150 mg/kg bodyweight, individually and in combination, vs pulmonary fibrosis control (FIG. 7)
Procedure: as §1, §2

MUC 5B = test: Bleomycin induced lung fibrosis in rats: mucin 5B in lung tissue homogenate; conditions: iso-garcinol 10 mg/kg, octahydrocurcumin 150 mg/kg bodyweight, individually and in combination, vs pulmonary fibrosis control (FIG. 8)
Procedure: as §1, §2

For `CC(C)=CC[C@H]1C[C@@]23C[C@@H](CC=C(C)C)C(C)(C)[C@@](CC=C(C)C)(C(=O)C(C(=O)c4ccc(O)c(O)c4)=C2OC1(C)C)C3=O` [iso-garcinol], the TNF-α levels (TNF-α) was “significantly reduced”, the IL-13 levels (IL-13) was “significantly reduced” and the CCL-17 levels (CCL-17) was “reduced”. The IL-1β levels (IL-1β) was “significantly reduced”, the Collagen-I (Collagen-I) was 89.68 ± 3.23 µg/mL and the “reduction in TGF-β levels” value (TGF-β) was 42.62%. For the same compound, the TGF-β levels (TGF-β) was 987.5 pg/mL, the “reduction of hypoxia related HIF-α (determination of effective dose)” value (HIF-1α; bleomycin rats, iso-garcinol 5, 10, 20 mg/kg bodyweight and different doses of octahydrocurcumin (FIG. 1)) was “better reduction of HIF-α at 10 mg/kg bodyweight” and the “reduction in HIF-α levels” value (HIF-1α) was 55%. For the same compound, the HIF-α levels (HIF-1α) was 61.9 pg/mL, the Lung index [1] was 1.19 ± 0.035 and the osteopontin levels (osteopontin) was “reduced”. For the same compound, the “MUC 5B levels” value (MUC 5B) was “reduced”.

With `COc1cc(CCC(O)CC(O)CCc2ccc(O)c(OC)c2)ccc1O` (stereo not shown) [octahydrocurcumin] the Collagen-I (Collagen-I) was 95.56 ± 4.90 µg/mL, the “reduction in TGF-β levels” value (TGF-β) was 28.62% and the TGF-β levels (TGF-β) was 1228.4 pg/mL. The “reduction in HIF-α levels” value (HIF-1α) was 36.6%, the HIF-α levels (HIF-1α) was 83.7 pg/mL and the Lung index [1] was 1.02 ± 0.045.

Source: US20210220291A1, “THERAPEUTIC COMPOSITIONS AND METHODS FOR PULMONARY FIBROSIS” (priority 2020, published 2021)
